One data set deals with HepG2 cells. Kind of data set: HepG2 cytotoxicity assay (CellTiter Glo). Type of data set: cell-based. The settings on record: Homo sapiens, HepG2, 72 h, read-out: IC50 (cyto).
For data set [1], the target named is T1, hPXR (Homo sapiens (Human), UniProt O75469). Kind of data set: hPXR transactivation assays (agonistic and antagonistic), HepG2 cells with CYP3A4-luciferase reporter. As to conditions: 24 h, NA = not active; for pEC50: read-out: EC50 (agon), agonistic assay, compound alone; for pIC50: read-out: IC50 (antag), antagonistic assay, combined with 5 μM rifampicin.
T1 sequence (O75469 whole entry): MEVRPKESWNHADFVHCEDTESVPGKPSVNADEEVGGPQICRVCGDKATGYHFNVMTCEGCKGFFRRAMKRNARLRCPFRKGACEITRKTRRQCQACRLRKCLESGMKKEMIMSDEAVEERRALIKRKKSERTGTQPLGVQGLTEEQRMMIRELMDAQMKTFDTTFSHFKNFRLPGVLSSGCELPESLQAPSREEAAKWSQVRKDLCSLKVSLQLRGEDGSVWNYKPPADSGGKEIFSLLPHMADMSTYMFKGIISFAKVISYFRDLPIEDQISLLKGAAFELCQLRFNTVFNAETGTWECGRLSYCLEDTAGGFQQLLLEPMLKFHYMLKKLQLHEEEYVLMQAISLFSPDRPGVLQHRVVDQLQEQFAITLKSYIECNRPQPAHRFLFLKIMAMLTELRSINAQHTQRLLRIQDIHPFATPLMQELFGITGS
Procedure: (§1) The hPXR transactivation assays (PXR agonistic and antagonistic assays) were performed in the HepG2 cells stably expressing FLAG-hPXR and CYP3A4-luciferase reporter. […] The luminescence signal was detected using an Envision plate reader (PerkinElmer Life Sciences).

For data set [2], the target named is human peroxisome proliferator-activated receptor gamma (PPARγ) (Homo sapiens, UniProt P37231). Description: human peroxisome proliferator-activated receptor gamma (PPARγ) transactivation assay. Type of data set: cell-based.
Sequence of human peroxisome proliferator-activated receptor gamma (PPARγ) (P37231 whole entry, looked up): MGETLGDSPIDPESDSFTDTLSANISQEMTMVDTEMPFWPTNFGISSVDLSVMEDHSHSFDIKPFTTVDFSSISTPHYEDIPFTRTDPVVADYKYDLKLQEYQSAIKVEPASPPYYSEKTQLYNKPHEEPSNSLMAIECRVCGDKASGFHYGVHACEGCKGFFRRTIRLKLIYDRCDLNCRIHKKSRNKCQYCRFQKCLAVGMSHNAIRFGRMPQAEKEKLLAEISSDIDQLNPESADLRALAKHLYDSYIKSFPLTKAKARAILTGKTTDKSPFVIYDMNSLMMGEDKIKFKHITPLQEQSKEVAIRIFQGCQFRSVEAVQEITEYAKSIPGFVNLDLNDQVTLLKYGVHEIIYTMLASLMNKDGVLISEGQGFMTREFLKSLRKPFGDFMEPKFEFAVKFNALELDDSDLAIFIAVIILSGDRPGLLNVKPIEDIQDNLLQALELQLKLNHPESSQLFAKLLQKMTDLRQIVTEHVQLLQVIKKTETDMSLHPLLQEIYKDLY
Procedure: Cells were maintained by following manufacturer's instruction. Briefly, PPARγ cells were maintained in matrigel-coated tissue culture flasks in DMEM supplemented with 10% dialyzed FBS, 0.1 mM non-essential amino acids, 1 mM sodium pyruvate, 25 mM HEPES, 100 μg/ml of hygromycin B, 500 μg/ml of geneticin, 100 units/ml penicillin and 100 μg/ml streptomycin. […] Assay medium containing DMSO without cells serves as background control.
Data set [3] concerns the target T1, hPXR.
Procedure: as §1
Data set [4] addresses human vitamin D receptor (hVDR) (Homo sapiens, UniProt P11473). Kind of data set: human vitamin D receptor (hVDR) transactivation assay. Type of data set: cell-based.
Procedure: Cells were maintained by following manufacturer's instruction. Briefly, VDR cells were maintained in matrigel-coated tissue culture flasks in DMEM supplemented with 10% dialyzed FBS, 0.1 mM non-essential amino acids, 1 mM sodium pyruvate, 25 mM HEPES, 80 μg/ml of hygromycin B, 80 μg/ml of zeocin, 100 units/ml penicillin and 100 μg/ml streptomycin. […] Assay medium containing DMSO without cells serves as background control.
Data set [5] addresses human glucocorticoid receptor (hGR) (Homo sapiens, UniProt P04150). Kind of data set: human glucocorticoid receptor (hGR) transactivation assay. Type of data set: cell-based. As to conditions: Anta = compound exhibited antagonism; read-out: GR (Anta).
Data set [6] concerns the target human retinoid X receptor alpha (hRXRα) (Homo sapiens, UniProt P19793). Description: human retinoid X receptor alpha (hRXRα) transactivation assay. As to conditions: Anta = compound exhibited antagonism; read-out: RXRα (Anta). Type of data set: cell-based.
Data set [7] concerns the target human retinoid X receptor beta (hRXRβ) (Homo sapiens, UniProt P28702). Description: human retinoid X receptor beta (hRXRβ) transactivation assay. As to conditions: for pIC50: Anta = compound exhibited antagonism, read-out: RXRβ (Anta). Type of data set: cell-based.
Procedure: Cells were maintained by following manufacturer's instruction. Briefly, RXRβ cells were maintained in DMEM supplemented with 10% dialyzed FBS, 0.1 mM non-essential amino acids, 25 mM HEPES, 100 μg/ml of hygromycin B, 100 μg/ml of zeocin, 100 units/ml penicillin and 100 μg/ml streptomycin.
The target in data set [8] is human Farnesoid X receptor (hFXR) (Homo sapiens, UniProt Q96RI1). Kind of data set: human Farnesoid X receptor (hFXR) transactivation assay. Type of data set: cell-based. The settings on record: Anta = compound exhibited antagonism; read-out: FXR (Anta).
Sequence of human Farnesoid X receptor (hFXR) (Q96RI1 whole entry, looked up): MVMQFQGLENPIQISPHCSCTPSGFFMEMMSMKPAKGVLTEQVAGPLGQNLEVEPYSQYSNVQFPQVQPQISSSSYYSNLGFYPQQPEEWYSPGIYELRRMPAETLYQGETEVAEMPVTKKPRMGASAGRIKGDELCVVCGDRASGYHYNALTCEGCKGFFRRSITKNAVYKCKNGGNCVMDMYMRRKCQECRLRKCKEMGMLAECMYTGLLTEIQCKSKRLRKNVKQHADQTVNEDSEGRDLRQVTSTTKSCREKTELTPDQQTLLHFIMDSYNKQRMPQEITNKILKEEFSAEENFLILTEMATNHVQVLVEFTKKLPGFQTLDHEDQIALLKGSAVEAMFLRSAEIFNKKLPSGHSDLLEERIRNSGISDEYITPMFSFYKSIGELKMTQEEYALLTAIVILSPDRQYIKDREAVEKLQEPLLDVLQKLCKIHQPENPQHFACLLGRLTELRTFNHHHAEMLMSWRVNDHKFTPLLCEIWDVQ
Procedure: Cells were maintained by following manufacturer's instruction. Briefly, FXR cells were maintained in DMEM supplemented with 10% dialyzed FBS, 0.1 mM non-essential amino acids, 25 mM HEPES, 100 μg/ml of hygromycin B, 100 μg/ml of zeocin, 100 units/ml penicillin and 100 μg/ml streptomycin.
Data set [9] addresses human Liver X receptor alpha (hLXRα) (Homo sapiens, UniProt Q13133). Description: human Liver X receptor alpha (hLXRα) transactivation assay. Type of data set: cell-based. As to conditions: Anta = compound exhibited antagonism; read-out: LXRα (Anta).
Data set [10] has as its target human Liver X receptor beta (hLXRβ) (Homo sapiens, UniProt P55055). Description: human Liver X receptor beta (hLXRβ) transactivation assay. Type of data set: cell-based. As to conditions: Anta = compound exhibited antagonism; read-out: LXRβ (Anta).
Setting [11] is: Anta = compound exhibited antagonism, read-out: PPARγ (Anta).

The source of these data is patent US10550091B2, “1,4,5-substituted 1,2,3-triazole analogues as antagonists of the pregnane X receptor” (ST. JUDE CHILDREN'S RESEARCH HOSPITAL, priority 2016, dated 2020).

pEC50, pIC50: −log10 of the molar value. Read-outs that look alike come from different tables or passages of the source.

Sequence of human retinoid X receptor alpha (hRXRα) (P19793 whole entry, looked up): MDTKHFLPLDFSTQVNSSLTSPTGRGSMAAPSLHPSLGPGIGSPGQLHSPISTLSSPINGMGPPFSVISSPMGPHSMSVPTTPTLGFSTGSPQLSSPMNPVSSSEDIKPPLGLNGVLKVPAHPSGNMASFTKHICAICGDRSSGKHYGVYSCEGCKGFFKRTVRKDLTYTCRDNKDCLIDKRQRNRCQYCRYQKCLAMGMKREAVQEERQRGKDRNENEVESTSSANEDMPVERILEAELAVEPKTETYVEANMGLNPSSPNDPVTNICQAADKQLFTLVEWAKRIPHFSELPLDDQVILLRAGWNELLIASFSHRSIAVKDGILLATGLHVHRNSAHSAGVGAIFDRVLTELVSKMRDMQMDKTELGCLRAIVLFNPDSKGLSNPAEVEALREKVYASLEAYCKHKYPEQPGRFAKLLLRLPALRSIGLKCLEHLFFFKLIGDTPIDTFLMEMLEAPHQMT
Sequence of human retinoid X receptor beta (hRXRβ) (P28702 whole entry, looked up): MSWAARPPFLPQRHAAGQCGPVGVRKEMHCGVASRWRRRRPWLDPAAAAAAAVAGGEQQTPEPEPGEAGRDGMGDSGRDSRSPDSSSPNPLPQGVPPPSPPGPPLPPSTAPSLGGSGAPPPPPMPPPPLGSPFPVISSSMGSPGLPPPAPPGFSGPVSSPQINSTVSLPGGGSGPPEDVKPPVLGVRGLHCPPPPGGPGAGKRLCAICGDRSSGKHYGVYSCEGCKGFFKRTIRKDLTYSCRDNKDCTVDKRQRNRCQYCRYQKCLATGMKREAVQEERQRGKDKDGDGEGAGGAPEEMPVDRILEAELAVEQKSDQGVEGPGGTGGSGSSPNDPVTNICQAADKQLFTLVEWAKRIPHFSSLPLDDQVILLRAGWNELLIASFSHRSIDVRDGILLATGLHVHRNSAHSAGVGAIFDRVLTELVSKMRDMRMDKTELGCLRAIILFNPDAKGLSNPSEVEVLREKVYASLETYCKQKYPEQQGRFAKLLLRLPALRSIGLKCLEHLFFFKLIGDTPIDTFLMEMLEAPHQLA
Sequence of human glucocorticoid receptor (hGR) (P04150 whole entry, looked up): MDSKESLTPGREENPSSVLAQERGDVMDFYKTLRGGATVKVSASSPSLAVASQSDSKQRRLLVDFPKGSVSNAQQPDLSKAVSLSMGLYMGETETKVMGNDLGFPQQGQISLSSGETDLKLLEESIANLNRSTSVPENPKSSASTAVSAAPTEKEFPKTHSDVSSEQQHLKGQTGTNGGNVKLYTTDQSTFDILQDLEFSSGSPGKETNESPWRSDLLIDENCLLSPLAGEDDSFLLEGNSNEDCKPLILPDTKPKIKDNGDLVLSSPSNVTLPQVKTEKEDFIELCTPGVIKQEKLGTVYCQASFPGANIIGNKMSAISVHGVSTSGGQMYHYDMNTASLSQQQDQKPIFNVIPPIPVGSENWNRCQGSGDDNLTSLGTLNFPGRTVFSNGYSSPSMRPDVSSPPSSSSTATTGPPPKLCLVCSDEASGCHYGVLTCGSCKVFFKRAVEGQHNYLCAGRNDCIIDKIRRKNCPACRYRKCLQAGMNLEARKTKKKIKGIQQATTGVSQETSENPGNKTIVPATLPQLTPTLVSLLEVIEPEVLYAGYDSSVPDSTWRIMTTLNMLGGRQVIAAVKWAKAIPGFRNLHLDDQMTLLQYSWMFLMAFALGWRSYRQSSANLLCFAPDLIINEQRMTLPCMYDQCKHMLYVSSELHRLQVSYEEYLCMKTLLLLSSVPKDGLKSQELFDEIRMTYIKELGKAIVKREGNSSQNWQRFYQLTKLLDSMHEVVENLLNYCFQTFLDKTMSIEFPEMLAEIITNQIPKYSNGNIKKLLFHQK
Sequence of human Liver X receptor alpha (hLXRα) (Q13133 whole entry, looked up): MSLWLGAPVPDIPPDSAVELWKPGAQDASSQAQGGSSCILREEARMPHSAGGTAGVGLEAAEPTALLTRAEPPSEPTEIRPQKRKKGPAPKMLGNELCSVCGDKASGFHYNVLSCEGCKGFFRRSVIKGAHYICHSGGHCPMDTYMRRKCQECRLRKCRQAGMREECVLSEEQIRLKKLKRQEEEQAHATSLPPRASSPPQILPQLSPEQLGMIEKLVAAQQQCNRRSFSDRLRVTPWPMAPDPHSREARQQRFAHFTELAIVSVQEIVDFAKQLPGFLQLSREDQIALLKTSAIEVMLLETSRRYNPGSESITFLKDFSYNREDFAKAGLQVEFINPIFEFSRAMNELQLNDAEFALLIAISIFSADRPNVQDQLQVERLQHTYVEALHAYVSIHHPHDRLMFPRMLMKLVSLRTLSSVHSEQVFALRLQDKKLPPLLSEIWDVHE
Sequence of human vitamin D receptor (hVDR) (P11473 whole entry, looked up): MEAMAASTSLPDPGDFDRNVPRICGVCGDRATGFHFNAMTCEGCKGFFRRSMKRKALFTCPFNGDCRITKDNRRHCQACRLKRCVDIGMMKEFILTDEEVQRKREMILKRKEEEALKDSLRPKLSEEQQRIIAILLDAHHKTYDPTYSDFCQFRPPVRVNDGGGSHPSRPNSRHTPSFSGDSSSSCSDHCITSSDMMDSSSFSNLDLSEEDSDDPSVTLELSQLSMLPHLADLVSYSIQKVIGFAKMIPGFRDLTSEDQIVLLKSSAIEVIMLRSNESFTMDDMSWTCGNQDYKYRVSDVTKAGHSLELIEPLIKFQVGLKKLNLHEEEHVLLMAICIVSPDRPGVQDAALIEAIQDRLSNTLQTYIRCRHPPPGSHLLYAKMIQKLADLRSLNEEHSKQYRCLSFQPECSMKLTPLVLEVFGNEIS
Sequence of human Liver X receptor beta (hLXRβ) (P55055 whole entry, looked up): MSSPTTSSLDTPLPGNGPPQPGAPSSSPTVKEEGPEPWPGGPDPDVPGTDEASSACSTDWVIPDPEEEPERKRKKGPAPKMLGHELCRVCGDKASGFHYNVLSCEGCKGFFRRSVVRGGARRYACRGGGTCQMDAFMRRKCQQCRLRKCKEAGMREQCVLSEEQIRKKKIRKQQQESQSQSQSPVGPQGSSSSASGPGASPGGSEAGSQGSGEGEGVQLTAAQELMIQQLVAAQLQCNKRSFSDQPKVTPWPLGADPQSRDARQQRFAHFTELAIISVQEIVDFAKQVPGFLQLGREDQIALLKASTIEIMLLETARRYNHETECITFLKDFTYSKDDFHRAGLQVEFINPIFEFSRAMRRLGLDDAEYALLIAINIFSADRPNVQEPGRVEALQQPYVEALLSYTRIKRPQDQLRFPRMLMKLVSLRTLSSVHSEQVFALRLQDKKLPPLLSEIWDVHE

In the case of `COc1ccc(OC)c(-n2nnc(S(=O)(=O)c3ccc(C(C)(C)C)c(O)c3)c2C)c1` [LC-88, 2-(tert-butyl)-5-((1-(2,5-dimethoxyphenyl)-5-methyl-1H-1,2,3-triazol-4-yl)sulfonyl)phenol], the pIC50 in the data set with HepG2 cells was 4.89. Also, on hPXR [1], the pEC50 is 5.85.

`COc1cc(Cl)c(Cl)cc1-n1nnc(S(=O)(=O)c2ccc(C(C)(C)C)cc2)c1C` [LC-28, 4-((4-(tert-butyl)phenyl)sulfonyl)-1-(4,5-dichloro-2-methoxyphenyl)-5-methyl-1H-1,2,3-triazole]: the pIC50 in data set [2] (setting [11]) is 4.84.

On to `COc1ccc(Cl)cc1-n1nnc(N(C)c2ccc(C(C)(C)C)cc2)c1C` [LC-48, N-(4-(tert-butyl)phenyl)-1-(5-chloro-2-methoxyphenyl)-N,5-dimethyl-1H-1,2,3-triazol-4-amine], for which, in the data set with HepG2 cells (NA = not active), the pIC50 is 4.47. Also, the pEC50 on hPXR [3] is 6.15.

As for `COc1ccc(O)c(-n2nnc(S(=O)(=O)c3ccc(C(C)(C)C)c(O)c3)c2C)c1` [LC-83, 2-(4-((4-(tert-butyl)-3-hydroxyphenyl)sulfonyl)-5-methyl-1H-1,2,3-triazol-1-yl)-4-methoxyphenol], the pIC50 in the data set on HepG2 cells was 4.79. Moreover, at hPXR [1], the pEC50 was 5.30.

Regarding `COc1ccc(OC)c(-n2nnc(S(=O)(=O)c3ccc(C(C)(C)C)cc3)c2Br)c1` [LC-61, 5-bromo-4-((4-(tert-butyl)phenyl)sulfonyl)-1-(2,5-dimethoxyphenyl)-1H-1,2,3-triazole], the pIC50 in data set [2] (setting [11]) was 4.89.

As to `COc1ccc(C)cc1-n1nnc(S(=O)(=O)c2ccc(C(C)(C)C)cc2)c1CCl` [LC-65, 4-((4-(tert-butyl)phenyl)sulfonyl)-5-(chloromethyl)-1-(2-methoxy-5-methylphenyl)-1H-1,2,3-triazole], the pIC50 in the data set with HepG2 cells (NA = not active) is 5.15. This molecule showed a pEC50 at hPXR [3] of 5.21.

As to `COc1ccc(O)c(-n2nnc(S(=O)(=O)c3ccc(C(C)(C)C)cc3)c2C)c1` [LC-86, 2-(4-((4-(tert-butyl)phenyl)sulfonyl)-5-methyl-1H-1,2,3-triazol-1-yl)-4-methoxyphenol], the pIC50 in the data set on HepG2 cells is 4.58; in data set [4] it was 4.62; in [5] it was 4.67; in data set [6], 4.69; in [7], 4.75; in data set [8], 4.66. For the same molecule, the pIC50 in [9] is 4.53; in data set [10], 4.72; in [2] (setting [11]), 4.93; at hPXR [1], 6.74.

With `COc1ccc(Cl)cc1-c1nc(C)c(S(=O)(=O)c2ccc(C(C)(C)C)cc2)n1C` [LC-78, 5-((4-(tert-butyl)phenyl)sulfonyl)-2-(5-chloro-2-methoxyphenyl)-1,4-dimethyl-1H-imidazole], the pIC50 in the data set on HepG2 cells (NA = not active) was 4.61. Further, the pEC50 on hPXR [3] is 5.85.

For `COc1ccc(OC)c(-n2nnc(S(=O)(=O)c3ccc(C(C)(C)C)cc3O)c2C)c1` [LC-84, 5-(tert-butyl)-2-((1-(2,5-dimethoxyphenyl)-5-methyl-1H-1,2,3-triazol-4-yl)sulfonyl)phenol], the pIC50 in the data set on HepG2 cells was 4.68. For the same molecule, the pEC50 at hPXR [1] was 5.48.

As to `O=C(Nc1ccccc1)c1cc([N+](=O)[O-])ccc1Cl` [GW9662, reference compound], the pIC50 in data set [2] (PPARγ antagonistic assay, 100 nM rosiglitazone, read-out: IC50) is 6.62.

Regarding `COc1cc(C(C)=O)c(Cl)cc1-n1nnc(S(=O)(=O)c2ccc(C(C)(C)C)cc2)c1C` [LC-35, 1-(4-(4-((4-(tert-butyl)phenyl)sulfonyl)-5-methyl-1H-1,2,3-triazol-1-yl)-2-chloro-5-methoxyphenyl)ethan-1-one], the pIC50 in the data set with HepG2 cells (NA = not active) is 5.14. At hPXR [3], the pEC50 is 5.89.

Regarding `COc1ccc(OC)c(-c2nc(C)c(S(=O)(=O)c3ccc(C(C)(C)C)cc3)[nH]2)c1` [LC-73, 5-((4-(tert-butyl)phenyl)sulfonyl)-2-(2,5-dimethoxyphenyl)-4-methyl-1H-imidazole], in [5], the pIC50 was 5.36.

Consider `COc1ccc(OC)c(-c2ncc(S(=O)(=O)c3ccc(C(C)(C)C)cc3)n2C)c1` [LC-70, 5-((4-(tert-butyl)phenyl)sulfonyl)-2-(2,5-dimethoxyphenyl)-1-methyl-1H-imidazole], for which the pIC50 with HepG2 cells (NA = not active) is 4.82; in [5], 4.69; in [6] it was 4.79; in [8] it was 4.84; in data set [2] (setting [11]), 4.55.

As for `COc1ccc(Cl)cc1-n1nnc(S(=O)(=O)c2ccc(C(C)(C)C)cc2)c1N` [LC-39, 4-((4-(tert-butyl)phenyl)sulfonyl)-1-(5-chloro-2-methoxyphenyl)-1H-1,2,3-triazol-5-amine], the pIC50 in the data set on HepG2 cells (NA = not active) was 4.79. Moreover, at hPXR [3], the pEC50 is 6.00.

In the case of `COc1cc(C(C)=O)c(C)cc1-n1nnc(S(=O)(=O)c2ccc(C(C)(C)C)cc2)c1C` [LC-26, 1-(4-(4-((4-(tert-butyl)phenyl)sulfonyl)-5-methyl-1H-1,2,3-triazol-1-yl)-5-methoxy-2-methylphenyl)ethan-1-one], in the data set with HepG2 cells (NA = not active), the pIC50 is 5.47. The same molecule showed a pEC50 on hPXR [3] of 6.80.

For `COc1ccc(C)cc1-n1nnc(S(=O)(=O)c2ccc(C(C)C)cc2)c1C` [LC-2], at hPXR [1], the pIC50 is 6.18.

Regarding `COc1cc(C#N)c(Cl)cc1-n1nnc(S(=O)(=O)c2ccc(C(C)(C)C)cc2)c1C` [LC-36, 4-(4-((4-(tert-butyl)phenyl)sulfonyl)-5-methyl-1H-1,2,3-triazol-1-yl)-2-chloro-5-methoxybenzonitrile], the pEC50 at hPXR [1] is 5.62.

On to `COc1ccc(O)cc1-n1nnc(S(=O)(=O)c2ccc(C(C)(C)C)cc2)c1C` [LC-87, 3-(4-((4-(tert-butyl)phenyl)sulfonyl)-5-methyl-1H-1,2,3-triazol-1-yl)-4-methoxyphenol], for which, on hPXR [1], the pEC50 is 4.92.

For the molecule `COC(=O)Cc1c(S(=O)(=O)c2ccc(C(C)(C)C)cc2)nnn1-c1cc(C)ccc1OC` [LC-66, methyl 2-(4-((4-(tert-butyl)phenyl)sulfonyl)-1-(2-methoxy-5-methylphenyl)-1H-1,2,3-triazol-5-yl)acetate], in data set [7] (Ag = compound exhibited agonism, read-out: RXRβ (Ag)), the pEC50 is 4.71.

In the case of `COc1ccc(Cl)cc1-n1nnc(S(=O)(=O)c2ccc(C(C)C)cc2)c1C` [LC-3], at hPXR [1], the pIC50 was 6.28.

`COc1ccc(OC)c(-n2nnc(S(=O)(=O)c3ccc(C(C)C)cc3)c2C)c1` [LC-4]: the pIC50 at hPXR [1] is 6.20.

Regarding `Cc1c(S(=O)(=O)c2ccc(C(C)(C)C)cc2)nnn1-c1cc(O)ccc1O` [LC-85, 2-(4-((4-(tert-butyl)phenyl)sulfonyl)-5-methyl-1H-1,2,3-triazol-1-yl)benzene-1,4-diol], the pIC50 in data set [7] is 4.51; in [2] (setting [11]), 4.89; on hPXR [1], 5.41.

For `COc1ccc(Cl)cc1-n1nnc(S(=O)(=O)c2ccc(C(C)(C)C)cc2)c1Br` [LC-62, 5-bromo-4-((4-(tert-butyl)phenyl)sulfonyl)-1-(5-chloro-2-methoxyphenyl)-1H-1,2,3-triazole], the pIC50 in data set [2] (setting [11]) was 4.98.

With `COc1ccc(OC)c(-n2nnc(S(=O)(=O)c3ccc(C(C)(C)C)cc3)c2CCl)c1` [LC-64, 4-((4-(tert-butyl)phenyl)sulfonyl)-5-(chloromethyl)-1-(2,5-dimethoxyphenyl)-1H-1,2,3-triazole], the pIC50 is 5.10 in the data set with HepG2 cells (NA = not active); 5.14 in data set [4]; 5.25 in [5]; 5.24 in data set [6]; 5.39 in data set [7]; 5.20 in data set [8]. In addition, the results for the pIC50 in data set [9], in data set [10] and in data set [2] (setting [11]) were 5.19, 5.39 and 5.82, respectively.

Take `COc1ccc(Cl)cc1-n1nnc(Nc2ccc(C(C)(C)C)cc2)c1C` [LC-45, N-(4-(tert-butyl)phenyl)-1-(5-chloro-2-methoxyphenyl)-5-methyl-1H-1,2,3-triazol-4-amine]: in the data set with HepG2 cells (NA = not active), the pIC50 is 4.51. Besides, the pEC50 on hPXR [3] is 5.96.
